Where a name gives a salt, the structure may show the parent alone.
Experiments:
[1] = test system: extrinsic coagulation time (PT); assay: Ex vivo measurement of coagulation time in cynomolgus monkeys (oral administration), extrinsic coagulation time (PT); conditions: for Test on Measurement of Coagulation Time in Cynomolgus Monkeys (PT): relative ratio of coagulation time to control, blood collection point with the most potent extension
Procedure: 4) Test on Ex Vivo Measurement of Coagulation Time in Cynomolgus Monkeys (Oral Administration)
A drug (5 mg/ml or 0.5 mg/ml) which was dissolved (suspended) in 0.5% methylcellulose was compulsorily administered per os at a dose of 2 ml/kg (10 mg/kg or 1 mg/kg) via an oral gavage after blood collection before the administration of the drug to a male cynomolgus monkeys (body weight around 4 kg) fasted for 12 hours or longer and, after 1, 2, 4, 6 and 8 hour(s), 2 ml of blood was collected from femoral vein using 1/10 volume of 3.8% sodium citrate and blood plasma was separated by means of centrifugal treatment of 3,000 rpm for 10 minutes. Using the resulting blood plasma, extrinsic coagulation time (PT) and intrinsic coagulation time (APTT) were measured in accordance with the following methods a) and b). The experiment was carried out under non-anesthetization.
a) Extrinsic Coagulation Time (PT)
Ortho Brain Thromboplastin (54 mg/vial; a freeze-dried preparation; Ortho-Clinical Diagnostics) was dissolved in 2.5 ml of Milli-Q water and preliminarily warmed at 37° C. The above-separated blood plasma (50 μl) was warmed at 37° C. for 1 minute, 50 μl of the above-mentioned thromboplastin solution was added and the coagulation time was measured. KC10 of Amelung was used for the measurement of the coagulation time.

human factor Xa = target: T1, human factor Xa (Homo sapiens, UniProt P00742); assay: In vitro test on measurement of coagulation time by human activated blood coagulation factor X (human plasma); format: biochemical; conditions: for Test on Measurement of Coagulation Time by Human Activated Blood Coagulation Factor X (CT2): CT2 = concentration by which the coagulation time is prolonged 2-fold, human blood plasma; for anti-blood coagulation action (extension of coagulation time), in words: in vitro, human plasma
T1 construct: purchased Enzyme Research Labs
T1 sequence (P00742 235-488 limits assumed): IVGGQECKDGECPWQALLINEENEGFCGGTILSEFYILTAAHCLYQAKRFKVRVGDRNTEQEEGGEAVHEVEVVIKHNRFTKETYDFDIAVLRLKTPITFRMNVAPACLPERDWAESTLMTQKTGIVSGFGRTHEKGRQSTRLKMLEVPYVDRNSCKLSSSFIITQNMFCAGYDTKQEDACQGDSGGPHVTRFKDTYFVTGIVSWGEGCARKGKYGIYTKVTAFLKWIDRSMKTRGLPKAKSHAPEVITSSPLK
T1 sequence (P00742 41-179 partner limits assumed): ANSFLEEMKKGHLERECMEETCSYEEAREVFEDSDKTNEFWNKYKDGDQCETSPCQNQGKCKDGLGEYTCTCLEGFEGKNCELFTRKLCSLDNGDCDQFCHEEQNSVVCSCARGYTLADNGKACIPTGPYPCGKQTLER
Procedure: 1) An In Vitro Test on Measurement of Coagulation Time by Human Activated Blood Coagulation Factor X
To 90 μl of human blood plasma were added 10 μl of a drug or a physiological saline and 50 μl of human factor Xa (Enzyme Research Labs), incubation was carried out at 30° C. for 3 minutes, 100 μl of 20 mM CaCl2 previously warmed at 37° C. were added and the time until coagulation was measured by a coagulo-meter (KC10 of Amelung). With regard to the human blood plasma, each 45 ml of blood were collected from vein of elbow of six healthy persons using a syringe in which 5 ml of 3.8% sodium citrate were contained and centrifuged at 4° C. for 15 minutes at 3,000 rpm and the separate blood plasma was pooled and frozen, then thawed before use. With regard to the human factor Xa, the concentration by which the coagulation time when a physiological saline solution (control) was added was about 30 to 40 seconds was selected. A CT2 value (concentration by which the coagulation time is prolonged to an extent of 2-fold) was determined by plotting the drug concentrations and relative value (fold) of the coagulation time to the control, followed by subjecting to linear regression.

Test on Measurement of Coagulation Time by Human Activated Blood Coagulation Factor X (CT2) (human factor Xa) [µM]	Structure (SMILES)	Test on Measurement of Coagulation Time in Cynomolgus Monkeys (PT) ([1]; 1 mg/kg per os)	anti-blood coagulation action (extension of coagulation time), in words (human factor Xa)	Test on Measurement of Coagulation Time in Cynomolgus Monkeys (PT) ([1]; 10 mg/kg per os)	extending action for the coagulation time compared with control (Example 44 of WO 00/39118) ([1]; same dose as control (10 mg/kg), oral, cynomolgus monkeys)
–	CC(C)N1CCC(C(=O)Nc2c(O)cc(Br)cc2C(=O)Nc2ccc(Cl)cn2)CC1 [Example 19, 4′-bromo-2′-[(5-chloro-2-pyridyl)carbamoyl]-6′-hydroxy-1-isopropylpiperidine-4-carboxanilide hydrochloride]	2.26	–	–	–
0.153	CC(C)N1CCC(C(=O)Nc2c(O)cc(Cl)cc2C(=O)Nc2ccc(Cl)cn2)CC1 [Example 18, 4′-chloro-2′-[(5-chloro-2-pyridyl)carbamoyl]-6′-hydroxy-1-isopropylpiperidine-4-carboxanilide hydrochloride]	1.94	extend the coagulation time at low concentration	–	–
0.295	CC(C)N1CCC(C(=O)Nc2c(O[C@@H]3O[C@H](CO)[C@H](O)[C@H](O)[C@H]3O)cc(Br)cc2C(=O)Nc2ccc(Cl)cn2)CC1 [Example 1, trifluoroacetate]	–	extend the coagulation time at low concentration	7.69	longer extending action for the coagulation time
–	CC(C)N1CCC(C(=O)Nc2ccc(Cl)cc2C(=O)Nc2ccc(Cl)cn2)CC1 [Control Compound, reference compound]	–	–	2.00	–
–	CC(=O)N[C@H]1[C@H](Oc2cc(Br)cc(C(=O)Nc3ccc(Cl)cn3)c2NC(=O)C2CCN(C(C)C)CC2)O[C@H](CO)[C@@H](O)[C@@H]1O [Example 3, 2′-(2-acetamido-2-deoxy-β-D-glucopyranosyloxy)-4′-bromo-6′-[(5-chloro-2-pyridyl)-carbamoyl]-1-isopropylpiperidine-4-carboxanilide trifluoroacetate]	–	–	5.60	–
0.137	COC[C@H]1O[C@@H](Oc2cc(Br)cc(C(=O)Nc3ccc(Cl)cn3)c2NC(=O)C2CCN(C(C)C)CC2)[C@H](O)[C@@H](O)[C@@H]1O [Example 8]	–	extend the coagulation time at low concentration	–	–
0.617	CC(C)N1CCC(CNc2c(O)cc(Cl)cc2C(=O)Nc2ccc(Cl)cn2)CC1 [Example 10]	–	extend the coagulation time at low concentration	–	–
